From the supplement of paper PMC10307832

Assays:
Test in all cases: relative viability (nuclei count vs DMSO), 5 days (fraction); higher = more cells survive
AGI-6780 + Decitabine = compound: O=C(Nc1cccc(C(F)(F)F)c1)Nc1cc(S(=O)(=O)NC2CC2)ccc1-c1ccsc1 [AGI-6780] + Nc1ncn([C@H]2C[C@H](O)[C@@H](CO)O2)c(=O)n1 [Decitabine] (partner 2 µM)
Outline: (§1)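 Lung cancer cell lines were pin-tool dosed in 1536-well plates on the day after seeding, with either a lone drug or a fixed anchor-drug dose plus five library-drug doses (not always all listed) in √10 steps. Nuclei were counted on 4× images after 5 days. Relative viability is the ratio of treated-well to vehicle-well nuclei counts, with each value a median of duplicate plates.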

AGI-6780 + Olaparib = compound: O=C(Nc1cccc(C(F)(F)F)c1)Nc1cc(S(=O)(=O)NC2CC2)ccc1-c1ccsc1 [AGI-6780] + O=C(c1cc(Cc2n[nH]c(=O)c3ccccc23)ccc1F)N1CCN(C(=O)C2CC2)CC1 [Olaparib] (partner 8 µM)
Outline: as §1

AGI-6780 + Lapatinib = compound: O=C(Nc1cccc(C(F)(F)F)c1)Nc1cc(S(=O)(=O)NC2CC2)ccc1-c1ccsc1 [AGI-6780] + CS(=O)(=O)CCNCc1ccc(-c2ccc3ncnc(Nc4ccc(OCc5cccc(F)c5)c(Cl)c4)c3c2)o1 [Lapatinib] (partner 2 µM)
Outline: as §1

AGI-6780 + AZD7762 = compound: O=C(Nc1cccc(C(F)(F)F)c1)Nc1cc(S(=O)(=O)NC2CC2)ccc1-c1ccsc1 [AGI-6780] + NC(=O)Nc1cc(-c2cccc(F)c2)sc1C(=O)N[C@H]1CCCNC1 [AZD7762] (partner 0.2 µM)
Outline: as §1

Cell Line | relative viability (AGI-6780 + Decitabine; first compound 0.08 µM) | relative viability (AGI-6780 + Decitabine; first compound 0.253 µM) | relative viability (AGI-6780 + Decitabine; first compound 0.8 µM) | relative viability (AGI-6780 + Decitabine; first compound 2.53 µM) | relative viability (AGI-6780 + Decitabine; first compound 8 µM) | relative viability (AGI-6780 + Olaparib; first compound 0.08 µM) | relative viability (AGI-6780 + Olaparib; first compound 0.253 µM) | relative viability (AGI-6780 + Olaparib; first compound 0.8 µM) | relative viability (AGI-6780 + Olaparib; first compound 2.53 µM) | relative viability (AGI-6780 + Olaparib; first compound 8 µM) | relative viability (AGI-6780 + Lapatinib; first compound 0.08 µM) | relative viability (AGI-6780 + Lapatinib; first compound 0.253 µM) | relative viability (AGI-6780 + Lapatinib; first compound 0.8 µM) | relative viability (AGI-6780 + Lapatinib; first compound 2.53 µM) | relative viability (AGI-6780 + Lapatinib; first compound 8 µM) | relative viability (AGI-6780 + AZD7762; first compound 0.08 µM) | relative viability (AGI-6780 + AZD7762; first compound 0.253 µM) | relative viability (AGI-6780 + AZD7762; first compound 0.8 µM) | relative viability (AGI-6780 + AZD7762; first compound 2.53 µM) | relative viability (AGI-6780 + AZD7762; first compound 8 µM)
HCC-827 | 0.331 | 0.314 | 0.39 | 0.29 | 0.336 | 0.73 | 0.659 | 0.661 | 0.53 | 0.651 | 0.201 | 0.215 | 0.197 | 0.191 | 0.179 | 0.223 | 0.269 | 0.356 | 0.236 | 0.187
HOP-62 | 0.199 | 0.264 | 0.235 | 0.25 | 0.218 | 0.47 | 0.303 | 0.197 | 0.536 | 0.452 | 0.974 | 0.888 | 0.965 | 1.06 | 1.06 | 0.659 | 0.592 | 0.826 | 0.846 | 0.82
IA-LM |  |  |  |  |  | 1.05 | 0.763 | 1 | 0.869 | 0.927 | 1.01 | 0.845 | 0.928 | 0.83 | 0.896 |  |  |  |  | 
LCLC-103H | 0.768 | 0.824 | 0.714 | 0.726 | 0.753 | 0.762 | 0.755 | 0.716 | 0.688 | 0.721 |  |  |  |  |  | 0.716 | 0.812 | 0.712 | 0.647 | 0.792
NCI-H441 | 0.221 | 0.28 | 0.25 | 0.204 | 0.241 | 0.627 | 0.525 | 0.624 | 0.441 | 0.453 |  |  |  |  |  | 1.33 | 1.35 | 1.43 | 1.2 | 1.39
NCI-H520 | 0.599 | 0.482 | 0.434 | 0.392 | 0.467 | 0.33 | 0.376 | 0.31 | 0.322 | 0.331 | 0.913 | 0.983 | 0.981 | 0.775 | 0.968 |  |  |  |  | 
NCI-H522 | 0.612 | 0.583 | 0.722 |  | 0.588 | 0.527 | 0.636 | 0.746 |  | 0.551 |  |  |  |  |  | 0.821 | 0.907 | 0.848 |  | 0.78
NCI-H661 | 0.589 | 0.567 | 0.612 | 0.502 | 0.558 | 0.782 | 0.754 | 0.768 | 0.719 | 0.726 | 0.549 | 0.518 | 0.616 | 0.474 | 0.516 |  |  |  |  | 
NCI-H1299 |  |  |  |  |  | 0.982 | 0.964 | 0.948 | 0.908 | 0.961 | 1.01 | 0.978 | 0.925 | 0.929 | 0.968 |  |  |  |  | 
NCI-H1563 |  |  |  |  |  |  |  |  |  |  | 1.03 | 0.924 | 0.987 | 0.881 | 0.903 |  |  |  |  | 
NCI-H1648 | 0.551 | 0.418 | 0.506 | 0.459 | 0.627 | 0.89 | 0.807 | 0.783 | 0.497 | 0.415 |  |  |  |  |  | 0.676 | 0.846 | 0.89 | 0.769 | 0.81
